Experimental data: patent publication US8241647B2, “Amphiphilic molecule, molecular assembly comprising the amphiphilic molecule, and use of the molecular assembly” (Waseda University, priority 2007, dated 2012)
Read-outs that look alike come from different tables or passages of the source.

Assay: Concentration of Compound 3 in rat plasma after i.v. liposome (LC/MS/MS)
Assay type: in vivo, SD rat
Details: male, Sprague-Dawley, iv, 40 mg/kg; for AUC / Cmax / half-life / concentration at 5 min / concentration at 1 h / concentration at 2 h / concentration at 6 h / concentration at 24 h: rat, plasma; for concentration at 5 min / concentration at 1 h / concentration at 2 h / concentration at 6 h / concentration at 24 h: SD rat, i.v. BSA-encapsulated pH-responsive liposome ([Lipid]=20 mg/mL, 2 ml/kg), read-out: GGLG concentration in plasma
Protocol: A pH-responsive liposome was prepared from mixed lipid (Compound (3)/cholesterol/PEG-Glu2C18=5/5/0.03 (mol)) using the high-pressure extrusion method. In the preparation, the particle size of the liposome was adjusted to 200 to 250 nm. Further, BSA was encapsulated in the internal aqueous phase. The prepared pH-responsive liposome ([Lipid]=20 mg/mL) was intravenously administered to a SD rat (male, body weight of 300 g or less) via the tail vein in an amount of 2 ml/kg under ether anesthesia. The number of rats used was N=3. Prior to the administration and 5 minutes, 1, 2, 6 and 24 hours after the administration, blood was collected (about 500 μL). The obtained blood was subjected to centrifugation (2,000×g, 20 minutes) to obtain plasma (liposome-suspended plasma), and this was preserved at −80° C. Further, after blood was collected 24 hours after the administration, the liver, spleen, lung and kidney were isolated, the wet weight thereof was measured, and these materials were preserved at −80° C. After that, homogenization was carried out using a saline in an amount 4 times greater than the wet weight of the organs.
A material in which the procedure is carried out until 100 μL of methanol is added to 10 μL of homogenate solution of plasma and the organs was used as a sample for measurement of specimen.
To the above-described sample for measurement, a solution to which an internal standard material (1,5-dihexadecyl N-glutamyl-L-glutamate (αGlu-Glu2C16)) was added (900 μL) was added, and the mixture was subjected to vortex stirring. After that, the mixture was allowed to stand at room temperature for at least 10 minutes. After that, the mixture was subjected to vortex stirring again and centrifuged at 4° C. at 10,000×g for 15 minutes. The obtained supernatant was transferred to an LC vial.
As a column, CAPLCELLPAK C18 MG (Shiseido Co., Ltd.) (3 μm, 2.0×50 mm) was used, and the column temperature was set at 40° C. Gradient elution was carried out using 0.1% acetic acid aqueous solution (A)-0.1% methanol acetate (B). The flow rate was 0.25 mL/min. The temperature of the autoinjector was set at 15° C. Regarding a needle washing solution, chloroform/methanol (1:1) was used for a washing pump, and methanol was used for a washing port.
The eluent that was separated by HPLC was subjected to positive ESI ionization and measured in the MRM mode.
An analyte for producing a calibration curve for measurement of plasma was measured, and a calibration curve of 1-300 μg/mL of plasma was prepared with weighting of 1/x^2 and Quadratic. The peak area of the analyte for measurement of plasma/IS peak area was substituted into the obtained formula of the calibration curve to calculate the concentration of Compound 3 in plasma. FIG. 8 is a graph showing the results. In FIG. 8, (-⋄-), (--[…]--) and (--Δ--) show the results of animal 1, animal 2 and animal 3, respectively.

[1] = SD rat plasma, i.v. liposome ([Lipid]=20 mg/mL, 2 ml/kg), animal 1
[2] = SD rat plasma, i.v. liposome ([Lipid]=20 mg/mL, 2 ml/kg), Average
[3] = SD rat plasma, i.v. liposome ([Lipid]=20 mg/mL, 2 ml/kg), animal 2
[4] = SD rat plasma, i.v. liposome ([Lipid]=20 mg/mL, 2 ml/kg), animal 3

CCCCCCCCCCCCCCCCOC(=O)CCC(NC(=O)C(CCCCNC(=O)C(N)CCC(=O)O)NC(=O)C(N)CCC(=O)O)C(=O)OCCCCCCCCCCCCCCCC (stereo not shown) [Compound 3]
Tmax [1]: 4.98 min | AUC [2]: 309 µg·h/mL | Cmax [2]: 132000 ng/mL | half-life (SD rat plasma, i.v. liposome ([Lipid]=20 mg/mL, 2 ml/kg), Average, read-out: t½ (converted)): 4.84 h | AUC [1]: 266 µg·h/mL | Cmax [1]: 105000 ng/mL | half-life (SD rat plasma, i.v. liposome ([Lipid]=20 mg/mL, 2 ml/kg), animal 1, read-out: t½ (converted)): 5.03 h | AUC [3]: 364 µg·h/mL | Cmax [3]: 153000 ng/mL | half-life (SD rat plasma, i.v. liposome ([Lipid]=20 mg/mL, 2 ml/kg), animal 2, read-out: t½ (converted)): 4.31 h | AUC [4]: 297 µg·h/mL | Cmax [4]: 136000 ng/mL | half-life (SD rat plasma, i.v. liposome ([Lipid]=20 mg/mL, 2 ml/kg), animal 3, read-out: t½ (converted)): 5.18 h | concentration at 5 min (Average value (N=3)): 132000 ng/mL | concentration at 5 min (animal 1): 105000 ng/mL | concentration at 5 min (animal 2): 153000 ng/mL | concentration at 5 min (animal 3): 136000 ng/mL | concentration at 1 h (Average value (N=3)): 53600 ng/mL | concentration at 1 h (animal 1): 44700 ng/mL | concentration at 1 h (animal 2): 62400 ng/mL | concentration at 1 h (animal 3): 53500 ng/mL | concentration at 2 h (Average value (N=3)): 31200 ng/mL | concentration at 2 h (animal 1): 25800 ng/mL | concentration at 2 h (animal 2): 39300 ng/mL | concentration at 2 h (animal 3): 28500 ng/mL | concentration at 6 h (Average value (N=3)): 8900 ng/mL | concentration at 6 h (animal 1): 8390 ng/mL | concentration at 6 h (animal 2): 10200 ng/mL | concentration at 6 h (animal 3): 8120 ng/mL | concentration at 24 h (Average value (N=3)): 1130 ng/mL | concentration at 24 h (animal 1): 1020 ng/mL | concentration at 24 h (animal 2): 1200 ng/mL | concentration at 24 h (animal 3): 1170 ng/mL | half-life (from concentration in rat plasma, i.v. pH-responsive liposome, read-out: half-life of Compound 3 (converted)): 4.8 h
